Measured values from publication PMC5652320 (ACS chemical biology, 2017).
One block for each compound: values may come before it.

Legend:
His-PPARγ LBD = target: T1, His-PPARγ LBD (Homo sapiens, UniProt P37231); type: biochemical; conditions: TRAP220 coactivator peptide
T1 sequence (P37231 203-477 isoform P37231-2): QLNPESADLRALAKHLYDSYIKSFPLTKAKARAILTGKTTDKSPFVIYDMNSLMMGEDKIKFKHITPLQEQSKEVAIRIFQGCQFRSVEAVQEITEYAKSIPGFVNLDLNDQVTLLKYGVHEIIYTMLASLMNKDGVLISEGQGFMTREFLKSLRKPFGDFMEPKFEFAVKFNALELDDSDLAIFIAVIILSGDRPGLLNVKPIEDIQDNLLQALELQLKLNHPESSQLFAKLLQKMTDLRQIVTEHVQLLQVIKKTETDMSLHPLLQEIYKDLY

[1] = limited use of MRL20 concentrations to 30 μM in assays; cited from earlier work
full-length PPARγ = target: T2, full-length PPARγ (Homo sapiens, UniProt P37231); assay: Full-length PPARγ/5xPPRE-luciferase reporter assay in HEK293T cells; type: cell-based; conditions: covalent analog ± 5 μM MRL20
T2 sequence (P37231 1-505): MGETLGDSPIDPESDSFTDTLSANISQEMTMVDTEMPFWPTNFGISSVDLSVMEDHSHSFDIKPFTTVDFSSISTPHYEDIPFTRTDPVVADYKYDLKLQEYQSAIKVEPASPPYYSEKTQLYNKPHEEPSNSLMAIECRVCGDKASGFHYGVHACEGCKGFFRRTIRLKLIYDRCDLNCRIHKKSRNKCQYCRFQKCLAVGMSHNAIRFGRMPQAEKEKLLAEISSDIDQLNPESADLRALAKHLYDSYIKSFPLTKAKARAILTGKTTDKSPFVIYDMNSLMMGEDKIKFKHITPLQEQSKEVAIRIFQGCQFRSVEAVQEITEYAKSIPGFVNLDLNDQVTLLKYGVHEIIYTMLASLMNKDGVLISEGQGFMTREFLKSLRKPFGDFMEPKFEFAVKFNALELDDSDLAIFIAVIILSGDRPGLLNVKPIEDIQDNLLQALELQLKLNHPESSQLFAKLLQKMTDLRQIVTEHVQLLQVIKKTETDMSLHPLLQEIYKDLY

TR-FRET response to rosiglitazone with covalent antagonist-bound PPARγ LBD (His-PPARγ LBD; rosiglitazone titration, endpoint 300 μM): lower but not blocked
Structure (SMILES): O=C(Nc1ccccc1)c1cc([N+](=O)[O-])ccc1Cl [GW9662]

Structure (SMILES): COc1ccc(C(=O)n2c(C)c(Cc3ccccc3O[C@@H](C)C(=O)O)c3cc(OC(F)(F)F)ccc32)cc1 [MRL20]
Solubility [1]: solubility issues

Structure (SMILES): COc1ccc2nccc(NC(=O)c3cc([N+](=O)[O-])ccc3Cl)c2c1 [compound 22]
Effect of covalent antagonist on binding of DHA to PPARγ (His-PPARγ LBD; DHA dose response and 30 μM endpoint): reduced binding of DHA to PPARγ better than GW9662 and T0070907
Inhibition of allosteric activation of full-length PPARγ by MRL20 (full-length PPARγ): inhibition of allosteric PPARγ activation
